Measurements reported in patent publication US20090156477A1, “Compositions and Methods for Regulating Inflammatory Responses” (Massachusetts Institute of Technology, priority 2005, published 2009).

What was measured:
Format in all cases: cell-based, human
Caco-2 cells = test: Caco-2 proliferation assay (whole cell number); conditions: for increased whole cell number: 100 ng/ml ligand, three days, vs PBS control
Method: Caco-2 cells were grown to just prior to confluence, and T84 cells were grown to confluence. Each flask was washed with 20 ml PBS and treated with 3 ml trypsin-EDTA at 37° C. for 20-60 minutes until cells detached. Cells were centrifuged for 3 minutes at 195×g. The supernatant was aspirated, and the cells were resuspended in 10 ml media. The cell density was measured using an electronic cell counter, and the suspension was diluted to 50,000 cells/ml. The suspension was plated at 1 ml/well into 12-well tissue culture plates. After a 24 hour incubation in a 5% CO2, 37° C. humidified incubator, the media was aspirated, the wells were washed with serum free media, and the cells were supplemented with media containing 0.1% FBS. The wells were then supplemented with 10 μl PBS, 50 mM sodium chlorate, or 200 μM TM, and incubated for 24 hours. Subsequently, cells were supplemented with 100 ng/ml FGF1, FGF2, FGF7, or 10 μl PBS, and incubated for 72 hours. Wells were then washed twice with PBS and treated with 0.5 ml trypsin-EDTA/well and incubated at 37° C. until cells detached. Whole cell number was determined using an electronic cell counter. Data was averaged over three experiments, each consisting of four wells per condition.

Sdc-1 = test: RT-PCR expression in Caco-2 cells after FGF treatment: Sdc-1; conditions: normalized to PBS treatment, defined as 1.0
Text: (§1) Five μg of total RNA was isolated from Caco-2 cells using Trizol reagent (Life Tech, Rockville, Md.) followed by reverse transcription with random hexamers. Specific oligomers were designed based on published sequences in order to detect the expression of specific human Wnt, Fz and syndecan isoforms. Sequences of primer pairs were as follows: Wnt-1: 5′-CACGACCTCGTCTACTTCGAC-3′ (SEQ ID NO: 17) and 5′-ACAGACACTCGTGCAGTACGC-3′ (SEQ ID NO: 18); Wnt-2: 5′-CATGGTGGTACATGAGAGCTAC-3′ (SEQ ID NO: 19) and 5′-GGCAAATACAACTCCAGCTGAG-3′ (SEQ ID NO: 20); Wnt-3: 5′-GAGAGCCTCCCCGTCCACAG-3′ (SEQ ID NO: 21) and 5′-CTGCCAGGAGTGTATTCGCATC-3′ (SEQ ID NO: 22); Wnt-3a: 5′-CAGGAACTACGTGGAGATCATG-3′ (SEQ ID NO: 23) and 5′-CCATCCCACCAAACTCGATGTC-3′ (SEQ ID NO: 24); Fz-1: 5′-GAACTTTCCTCCAACTTCATGGC-3′ (SEQ ID NO: 25) and 5′-CATTTCCATTTTACAGACCGG-3′ (SEQ ID NO: 26); Fz-2: 5′-GGTGAGCCAGCACTGCAAGAG-3′ (SEQ ID NO: 27) and 5′-CCTAAAAGTGAAATGGTTTCGATCG-3′ (SEQ ID NO: 28); Fz-10: 5′-ACACGTCCAACGCCAGCATG-3′ (SEQ ID NO: 29) and 5′-ACGAGTCATGTTGTAGCCGATG-3′ (SEQ ID NO: 30); and Syndecan-1/Sdc-1/CD138: 5′-CTTCACACTCCCCACACAGA-3′ (SEQ ID NO: 31) and 5′-TCCTGTTTGGTGGGCTTCTG-3′ (SEQ ID NO: 32). To control for total cell […], RT-PCR was also performed on β-actin using the primers 5′-GCCAGCTCACCATGGATGATGATAT-3′ (SEQ ID NO: 33) and 5′-GCTTGCTGATCCACATCTGCTGGAA-3′ (SEQ ID NO: 34). PCR was performed using the Advantage-GC cDNA kit from Clontech as per manufacturer's instructions (Palo Alto, Calif.).

T84 cells = test: Transepithelial resistance (TER) of T84 monolayers; conditions: for inhibited TER increases: 100 ng/ml ligand, three days (72 hours) after addition, percent reduction in TER compared to PBS treated cells; for reduced resistance on day 5: ligand added on day 0 and day 2, compared to untreated cells
Method: Caco-2 cells were grown close to confluence, and T84 cells were grown to confluence. The apical chambers of transwell plates with 6.5 mm diameter and 3 μm pore size filters were pretreated with 50 μl of 45 μg/ml collagen IV in 60% ethanol 24 hours prior to plating and incubated overnight at room temperature. After reaching confluence, cells were washed with 20 ml PBS and treated with 3.5 ml trypsin-EDTA per 175 cm^2 flask for 20-60 min at 37° C. until cells detached. Cells were resuspended in 16.5 ml media appropriate to the cell type. Each apical chamber was supplemented with 82 μl cell solution. The basolateral chamber was filled with 1 ml propagation media. Filters were fed with new media every two days over the course of experiments.
Caco-2 and T84 cells were allowed to grow on transwells to form monolayers. Monolayer formation was examined every other day by light microscopy as well as by transepithelial resistance (TER) measurements using an EVOM ohmmeter (World Precision Instruments, Sarasota, Fla.). After monolayer formation, cells were treated with 100 ng/ml FGF1, 100 ng/ml FGF2, 100 ng/ml FGF7 or an equivalent volume (10 μl) of PBS. TER measurements were made either after 72 hours or at each of the 30 minutes, 1 hour, 2 hours, 4 hours, 9 hours, 24 hours and 48 hours timepoints. To determine the effects of multiple additions of ligand, FGFs or PBS were added initially and again after 2 days, and TER measurements were made after 0, 2 and 5 days.
To probe the mechanism by which various FGFs induced cell mediated effects, various media treatments were employed. Ammonium tetrathiomolybdate (TM) was added 24 hours prior to the addition of ligands to yield a final concentration of 200 μM, sufficient to prevent the release of FGF1 [3]. Similarly, sodium chlorate, which reduces cell HSPGs and the sulfation of associated HSGAGs, was added 24 hours prior to the addition of ligands to yield a final concentration of 50 mM [33,34]. Antibodies and kinase inhibitors were added immediately prior to ligands. Antibodies to FGF1, FGFR1 and FGFR3 were added at a 1:100 dilution. Kinase inhibitors were added to yield final concentrations of 50 μM LY294002, 20 μM PD98059, 1 μM SB203580. All experiments were performed in triplicate.

Fz2 = test: RT-PCR expression in Caco-2 cells after FGF treatment: Fz2; conditions: normalized to PBS treatment, defined as 1.0
Text: as §1

With FGF1: Recombinant human FGF1 from Amgen the “effect of added agent on proliferative effect of FGF2 and FGF7” value (Caco-2 cells; TM 200 μM, FGF1 added to TM treated cells) was “restored the proliferative capacity of these ligands”, the “proliferation (in words)” value (Caco-2 cells; over three days) was “did not induce the proliferation” and the “Sdc-1 expression (intensity of RT-PCR images)” value (“Sdc-1 expression” for short) (Sdc-1) was 1.3. For the same molecule, the “inhibited TER increases” value (T84 cells) was 30.1±1.5%, the “reduced TER at 48 hours” value (T84 cells; 100 ng/ml, 48 hours) was 22.7±3.2% and the “effect of added agent on FGF-induced reduction in TER” value (T84 cells; agent given before or with 100 ng/ml FGFs (TM 200 μM, sodium chlorate 50 mM, LY294002 50 μM, antibodies 1:100)) was “restored TER reductions”. For the same molecule, the “Fz2 expression (intensity of RT-PCR images)” value (shortened to “Fz2 expression”) (Fz2) was 0.7.

For “FGF2: Recombinant human FGF2, produced as described”, the “increased whole cell number” value (Caco-2 cells) was 20.2±7.4%, the “Sdc-1 expression” value (Sdc-1) was 0.9 and the “inhibited TER increases” value (T84 cells) was 43.4±16.6%. The “reduced resistance on day 5” value (T84 cells) was 41.7±8.1% and the “Fz2 expression” value (Fz2) was 1.7.

B1: FGF7: Recombinant human FGF7 from Sigma (protein, UniProt P21781 32-194, looked up)
Fibroblast growth factor 7: CNDMTPEQMATNVNCSSPERHTRSYDYMEGGDIRVRRLFCRTQWYLRIDKRGKVKGTQEMKNNYNIMEIRTVAVGIVAIKGVESEFYLAMNKEGKLYAKKECNEDCNFKELILENHYNTYASAKWTHNGGEMFVALNQKGIPVRGKKTKKEQKTAHFLPMAIT
In the case of B1, the “increased whole cell number” value (Caco-2 cells) is reported as 16.4±8.9%, the “Sdc-1 expression” value (Sdc-1) is reported as 0.6 and the “inhibited TER increases” value (T84 cells) is reported as 54.6±7.6%. The “reduced resistance on day 5” value (T84 cells) was 37.3±3.5% and the “Fz2 expression” value (Fz2) was 1.6.
